Measured values: paper PMC7830771 (Molecular cancer therapeutics, 2017)

Tests used:
[1] = biological target: ABCB1 (P-glycoprotein, MDR1) (Homo sapiens, UniProt P08183); experiment: vanadate-sensitive ATPase assay, crude membranes of High Five cells; type: biochemical
[2] = biological target: T1, ABCC10 (MRP7) (Homo sapiens, UniProt Q5T3U5); experiment: [3H]-paclitaxel efflux, HEK293/ABCC10 versus HEK293/pcDNA3.[…] cells; type: cell-based; settings: labelled compound; 0.1 μmol/L; 37°C
T1 sequence (Q5T3U5 1-1492): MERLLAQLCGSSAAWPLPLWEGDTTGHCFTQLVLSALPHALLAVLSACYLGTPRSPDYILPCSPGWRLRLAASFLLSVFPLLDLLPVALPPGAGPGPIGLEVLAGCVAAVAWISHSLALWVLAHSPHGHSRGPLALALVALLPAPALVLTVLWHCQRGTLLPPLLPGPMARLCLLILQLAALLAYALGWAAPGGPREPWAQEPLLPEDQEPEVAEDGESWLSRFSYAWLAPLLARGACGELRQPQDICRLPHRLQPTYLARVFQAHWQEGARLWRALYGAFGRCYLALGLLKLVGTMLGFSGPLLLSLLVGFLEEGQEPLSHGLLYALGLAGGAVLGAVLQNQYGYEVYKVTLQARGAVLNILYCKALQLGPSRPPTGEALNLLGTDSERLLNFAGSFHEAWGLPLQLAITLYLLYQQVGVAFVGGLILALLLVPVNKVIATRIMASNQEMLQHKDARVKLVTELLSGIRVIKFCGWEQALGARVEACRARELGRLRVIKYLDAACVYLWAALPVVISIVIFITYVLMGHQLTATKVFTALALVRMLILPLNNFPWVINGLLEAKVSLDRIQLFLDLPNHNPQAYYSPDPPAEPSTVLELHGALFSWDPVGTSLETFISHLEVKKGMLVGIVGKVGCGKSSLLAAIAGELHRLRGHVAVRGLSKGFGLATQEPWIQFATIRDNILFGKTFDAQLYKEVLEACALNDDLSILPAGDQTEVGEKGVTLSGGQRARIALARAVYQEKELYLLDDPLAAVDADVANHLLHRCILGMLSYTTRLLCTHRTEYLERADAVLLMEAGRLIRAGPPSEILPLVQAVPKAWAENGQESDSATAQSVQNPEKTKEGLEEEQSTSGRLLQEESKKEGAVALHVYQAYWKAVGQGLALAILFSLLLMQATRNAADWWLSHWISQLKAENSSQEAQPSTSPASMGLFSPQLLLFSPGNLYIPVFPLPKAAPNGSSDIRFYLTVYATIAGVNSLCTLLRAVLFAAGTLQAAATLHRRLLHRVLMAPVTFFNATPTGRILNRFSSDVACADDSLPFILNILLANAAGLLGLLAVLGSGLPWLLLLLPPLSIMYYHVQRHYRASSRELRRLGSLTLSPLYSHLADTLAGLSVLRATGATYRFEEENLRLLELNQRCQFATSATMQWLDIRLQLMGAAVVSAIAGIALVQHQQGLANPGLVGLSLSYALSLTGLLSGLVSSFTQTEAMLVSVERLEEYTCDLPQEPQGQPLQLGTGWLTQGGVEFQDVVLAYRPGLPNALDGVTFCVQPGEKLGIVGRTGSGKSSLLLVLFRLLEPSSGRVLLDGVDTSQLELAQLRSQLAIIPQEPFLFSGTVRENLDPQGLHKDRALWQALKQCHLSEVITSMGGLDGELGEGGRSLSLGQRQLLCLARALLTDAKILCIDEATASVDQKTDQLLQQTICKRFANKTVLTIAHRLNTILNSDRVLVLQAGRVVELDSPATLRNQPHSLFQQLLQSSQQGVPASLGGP

Sequence of ABCB1 (P-glycoprotein, MDR1) (P08183 whole entry): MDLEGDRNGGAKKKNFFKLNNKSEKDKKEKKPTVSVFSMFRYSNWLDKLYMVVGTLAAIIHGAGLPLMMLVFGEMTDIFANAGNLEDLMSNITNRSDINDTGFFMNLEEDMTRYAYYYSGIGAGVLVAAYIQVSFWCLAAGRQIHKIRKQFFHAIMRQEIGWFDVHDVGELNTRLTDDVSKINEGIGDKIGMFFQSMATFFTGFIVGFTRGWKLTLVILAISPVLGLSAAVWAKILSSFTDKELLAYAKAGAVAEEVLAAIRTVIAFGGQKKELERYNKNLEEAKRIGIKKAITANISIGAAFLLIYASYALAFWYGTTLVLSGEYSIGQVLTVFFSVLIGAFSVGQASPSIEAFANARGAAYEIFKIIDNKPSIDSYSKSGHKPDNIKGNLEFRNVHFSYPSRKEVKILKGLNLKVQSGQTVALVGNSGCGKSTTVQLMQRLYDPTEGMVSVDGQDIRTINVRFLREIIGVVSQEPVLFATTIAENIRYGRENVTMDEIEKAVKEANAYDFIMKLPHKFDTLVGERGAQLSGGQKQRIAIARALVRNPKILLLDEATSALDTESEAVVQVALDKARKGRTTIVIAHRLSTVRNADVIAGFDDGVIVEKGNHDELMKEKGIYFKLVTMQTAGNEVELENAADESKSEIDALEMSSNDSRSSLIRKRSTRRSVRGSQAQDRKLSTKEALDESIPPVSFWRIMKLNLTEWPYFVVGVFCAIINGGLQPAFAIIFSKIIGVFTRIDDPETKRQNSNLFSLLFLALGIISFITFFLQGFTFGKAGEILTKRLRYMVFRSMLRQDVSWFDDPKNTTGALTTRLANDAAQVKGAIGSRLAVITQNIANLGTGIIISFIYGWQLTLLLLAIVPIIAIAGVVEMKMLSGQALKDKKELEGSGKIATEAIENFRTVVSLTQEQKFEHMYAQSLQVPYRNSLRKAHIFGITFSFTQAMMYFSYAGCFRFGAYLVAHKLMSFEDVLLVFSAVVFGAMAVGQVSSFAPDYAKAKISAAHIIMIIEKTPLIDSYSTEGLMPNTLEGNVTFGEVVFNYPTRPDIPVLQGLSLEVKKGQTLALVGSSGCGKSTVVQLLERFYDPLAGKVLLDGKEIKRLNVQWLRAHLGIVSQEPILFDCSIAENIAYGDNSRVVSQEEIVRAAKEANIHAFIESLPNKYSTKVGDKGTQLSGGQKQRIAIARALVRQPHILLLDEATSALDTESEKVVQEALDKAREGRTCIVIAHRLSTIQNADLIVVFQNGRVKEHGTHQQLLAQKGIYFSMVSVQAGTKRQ

Structure (SMILES)	EC50 [1] [nM]	[3H]-paclitaxel efflux, HEK293/ABCC10 versus HEK293/pcDNA3.1 cells [2]
C=CC(=O)N1CCC[C@@H](n2nc(-c3ccc(Oc4ccccc4)cc3)c3c(N)ncnc32)C1 [ibrutinib]	641	
CC(=O)O[C@H]1C(=O)[C@@]2(C)[C@H]([C@H](OC(=O)c3ccccc3)[C@]3(O)C[C@H](OC(=O)[C@H](O)[C@@H](NC(=O)c4ccccc4)c4ccccc4)C(C)=C1C3(C)C)[C@]1(OC(C)=O)CO[C@@H]1C[C@@H]2O [paclitaxel]		KB-C2 and HEK293/ABCC10 cells efflux more [^3H]-paclitaxel out of the cells
